Laboratory results as given in patent US20100267561A1, “HERBICIDAL PYRIDAZINONE DERIVATIVES” (priority 2007, published 2010).

What was measured:
Assay type in all cases: in vivo
[1] = tested on: bermudagrass (Cynodon dactylon); experiment: Test B pre-/postemergence plant response
Method in brief: (§1)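 Preemergence and postemergence (plants 2-18 cm, 1- to 4-leaf stage) applications used test chemicals in a non-phytotoxic solvent with surfactant. Plants were held in a greenhouse 13 to 15 days, then rated visually against controls on a 0-100 scale (0 no effect, 100 complete control).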

[2] = tested on: catchweed bedstraw (Galium aparine); experiment: Test B pre-/postemergence plant response; settings: Preemergence
Method in brief: as §1

[3] = tested on: cocklebur (Xanthium strumarium); experiment: Test B pre-/postemergence plant response
Method in brief: as §1

[4] = tested on: downy bromegrass (Bromus tectorum); experiment: Test B pre-/postemergence plant response
Method in brief: as §1

[5] = tested on: large crabgrass (Digitaria sanguinalis); experiment: Test B pre-/postemergence plant response
Method in brief: as §1

soybean (Glycine max) = experiment: Test B pre-/postemergence plant response
Method in brief: as §1

[6] = tested on: velvetleaf (Abutilon theophrasti); experiment: Test B pre-/postemergence plant response
Method in brief: as §1

[7] = tested on: wheat (Triticum aestivum); experiment: Test B pre-/postemergence plant response
Method in brief: as §1

wild oat (Avena fatua) = experiment: Test B pre-/postemergence plant response
Method in brief: as §1

[8] = tested on: woolly cupgrass (Eriochloa villosa); experiment: Test B pre-/postemergence plant response
Method in brief: as §1

[9] = tested on: barnyardgrass (Echinochloa crus-galli); experiment: Test B flooded paddy test plant response
Method in brief: (§2)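 Compounds were added directly to paddy water over 2-leaf-stage plants in pots flooded 3 cm above soil, water depth maintained. Visual injury scored against controls after 13 to 15 days in greenhouse, 0 (none) to 100 (complete control); dash indicates no result.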

[10] = tested on: ducksalad (Heteranthera limosa); experiment: Test B flooded paddy test plant response
Method in brief: as §2

rice (Oryza sativa) = experiment: Test B flooded paddy test plant response
Method in brief: as §2

[11] = tested on: umbrella sedge (Cyperus difformis); experiment: Test B flooded paddy test plant response
Method in brief: as §2

[12] = Postemergence, 31 g ai/ha, scale 0 to 100, 0 no effect, 100 complete control
[13] = Postemergence, 62 g ai/ha, scale 0 to 100
[14] = Postemergence, 125 g ai/ha, scale 0 to 100
[15] = Postemergence, 250 g ai/ha, scale 0 to 100
[16] = Preemergence, 31 g ai/ha, 0 to 100 scale, 0 no effect, 100 complete control
[17] = Preemergence, 62 g ai/ha, scale 0 to 100
[18] = Preemergence, 125 g ai/ha, scale 0 to 100
[19] = Preemergence, 250 g ai/ha, scale 0 to 100
[20] = Flood (flooded paddy test), 62 g ai/ha, scale 0 to 100, 0 no effect, 100 complete control
[21] = Flood (flooded paddy test), 125 g ai/ha, scale 0 to 100, 0 no effect, 100 complete control
[22] = Flood (flooded paddy test), 250 g ai/ha, scale 0 to 100, 0 no effect, 100 complete control
[23] = Flood, 31 g ai/ha, scale 0 to 100

## Cc1nn(C)c(=O)c(-n2nc(-c3ccc(Cl)cc3)cc2C)c1O [Compound 15]
[1]; 250 g ai/ha, preemergence, 0-100 scale
  Bermudagrass plant response rating: 100
[1]; [12]
  Plant response rating, Bermudagrass: 70
[1]; [13]
  Plant response rating, Bermudagrass: 100
[1]; [14]
  Plant response rating, Bermudagrass: 100
[1]; [15]
  Plant response rating, Bermudagrass: 100
[1]; [16]
  Plant response rating, Bermudagrass: 98
[1]; [17]
  Plant response rating, Bermudagrass: 98
[1]; [18]
  Plant response rating, Bermudagrass: 100
[2]; 31 g ai/ha, 0 to 100 scale, 0 no effect, 100 complete control
  Plant response rating, Galium: 0
[2]; 62 g ai/ha, scale 0 to 100
  Plant response rating, Galium: 0
[2]; 125 g ai/ha, scale 0 to 100
  Plant response rating, Galium: 10
[2]; 250 g ai/ha, scale 0 to 100
  Plant response rating, Galium: 100
[3]; [12]
  Plant response rating, Cocklebur: 0
[3]; [13]
  Plant response rating, Cocklebur: 0
[3]; [14]
  Plant response rating, Cocklebur: 0
[3]; [15]
  Plant response rating, Cocklebur: 0
[3]; [16]
  Plant response rating, Cocklebur: 0
[3]; [17]
  Plant response rating, Cocklebur: 0
[3]; [18]
  Plant response rating, Cocklebur: 0
[3]; [19]
  Plant response rating, Cocklebur: 10
[4]; [12]
  Plant response rating, Bromegrass, Downy: 10
[4]; [13]
  Plant response rating, Bromegrass, Downy: 15
[4]; [14]
  Plant response rating, Bromegrass, Downy: 45
[4]; [15]
  Plant response rating, Bromegrass, Downy: 60
[4]; [16]
  Plant response rating, Bromegrass, Downy: 50
[4]; [17]
  Plant response rating, Bromegrass, Downy: 55
[4]; [18]
  Plant response rating, Bromegrass, Downy: 90
[4]; Preemergence, 250 g ai/ha, scale 0 to 100 (0 no effect, 100 complete control)
  Plant response rating, Bromegrass, Downy: 98
[5]; [12]
  Plant response rating, Crabgrass, Large: 90
[5]; [13]
  Plant response rating, Crabgrass, Large: 90
[5]; [14]
  Plant response rating, Crabgrass, Large: 98
[5]; [15]
  Plant response rating, Crabgrass, Large: 100
[5]; [16]
  Plant response rating, Crabgrass, Large: 85
[5]; [17]
  Plant response rating, Crabgrass, Large: 100
[5]; [18]
  Plant response rating, Crabgrass, Large: 100
[5]; [19]
  Plant response rating, Crabgrass, Large: 100
Soybean (Glycine max); [12]
  Plant response rating, Soybean: 0
Soybean (Glycine max); [13]
  Plant response rating, Soybean: 0
Soybean (Glycine max); [14]
  Plant response rating, Soybean: 0
Soybean (Glycine max); [15]
  Plant response rating, Soybean: 0
Soybean (Glycine max); [16]
  Plant response rating, Soybean: 0
Soybean (Glycine max); [17]
  Plant response rating, Soybean: 0
Soybean (Glycine max); [19]
  Plant response rating, Soybean: 30
[6]; [12]
  Plant response rating, Velvetleaf: 0
[6]; [13]
  Plant response rating, Velvetleaf: 0
[6]; [14]
  Plant response rating, Velvetleaf: 0
[6]; [15]
  Plant response rating, Velvetleaf: 0
[6]; [16]
  Plant response rating, Velvetleaf: 0
[6]; [17]
  Plant response rating, Velvetleaf: 0
[6]; [19]
  Plant response rating, Velvetleaf: 0
[7]; [12]
  Plant response rating, Wheat: 5
[7]; [13]
  Plant response rating, Wheat: 60
[7]; [14]
  Plant response rating, Wheat: 70
[7]; [15]
  Plant response rating, Wheat: 85
[7]; [16]
  Plant response rating, Wheat: 0
[7]; [17]
  Plant response rating, Wheat: 60
[7]; [18]
  Plant response rating, Wheat: 60
[7]; [19]
  Plant response rating, Wheat: 80
Wild oat (Avena fatua); [12]
  Plant response rating, Oat, Wild: 95
Wild oat (Avena fatua); [13]
  Plant response rating, Oat, Wild: 98
Wild oat (Avena fatua); [14]
  Plant response rating, Oat, Wild: 98
Wild oat (Avena fatua); [15]
  Plant response rating, Oat, Wild: 100
Wild oat (Avena fatua); [16]
  Plant response rating, Oat, Wild: 10
Wild oat (Avena fatua); [17]
  Plant response rating, Oat, Wild: 70
Wild oat (Avena fatua); [18]
  Plant response rating, Oat, Wild: 80
Wild oat (Avena fatua); [19]
  Plant response rating, Oat, Wild: 85
[8]; [13]
  Plant response rating, Cupgrass, Woolly: 100
[8]; [14]
  Plant response rating, Cupgrass, Woolly: 100
[8]; [15]
  Plant response rating, Cupgrass, Woolly: 100
[8]; [16]
  Plant response rating, Cupgrass, Woolly: 60
[8]; [17]
  Plant response rating, Cupgrass, Woolly: 85
[8]; [18]
  Plant response rating, Cupgrass, Woolly: 90
[8]; [19]
  Plant response rating, Cupgrass, Woolly: 98
[9]; [20]
  Plant response rating, Barnyardgrass: 15
[9]; [21]
  Plant response rating, Barnyardgrass: 40
[9]; [22]
  Plant response rating, Barnyardgrass: 60
[9]; [23]
  Plant response rating, Barnyardgrass: 0
[10]; [20]
  Plant response rating, Ducksalad: 0
[10]; [21]
  Plant response rating, Ducksalad: 80
[10]; [22]
  Plant response rating, Ducksalad: 100
[10]; [23]
  Plant response rating, Ducksalad: 0
Rice (Oryza sativa); [20]
  Plant response rating, Rice: 0
Rice (Oryza sativa); [21]
  Plant response rating, Rice: 15
Rice (Oryza sativa); [22]
  Plant response rating, Rice: 70
Rice (Oryza sativa); [23]
  Plant response rating, Rice: 0
[11]; [20]
  Plant response rating, Sedge, Umbrella: 50
[11]; [21]
  Plant response rating, Sedge, Umbrella: 60
[11]; [22]
  Plant response rating, Sedge, Umbrella: 70
[11]; [23]
  Plant response rating, Sedge, Umbrella: 0
